Here are results for 22 molecules from patent US10189845B2, “4,6-substituted-pyrazolo[1,5-a]pyrazines as janus kinase inhibitors” (ARRAY BIOPHARMA INC., priority 2014, dated 2019).

One may read the IC50 as the midpoint of a concentration-inhibition curve. High values mean weaker potency, low ones greater potency.

Like-named read-outs stand apart in the source and are kept apart here.

Common to all, as to format: biochemical
For assay [1], the target named is JAK1 (Homo sapiens (Human), UniProt P23458). Briefly: JAK1 Inhibition Assay (Example B, Omnia kinase fluorescence peptide substrate assay). An excerpt: (§1) The assays described in Examples A, B, C and D for the determination of Tyk2, JAK1, JAK2 and JAK3 kinase activity, respectively, utilized the Omnia® Kinase fluorescence peptide substrate-based technology (Invitrogen). The specific components of the assay mixture are described in Examples A, B, C and D. In these assays, Mg^2+ is chelated upon phosphorylation of the Omnia peptide by the kinase to form a bridge between the chelation-enhanced fluorophore Sox and the phosphate, resulting in an increase in fluorescence emission at 485 nm when excited at […]. The reactions were therefore read at excitation 360 nm and emission was measured at 485 nm every 50 seconds for 45 minutes using a PerkinElmer EnVision Multilabel Plate Reader.
Chain of JAK1 (P23458 whole entry): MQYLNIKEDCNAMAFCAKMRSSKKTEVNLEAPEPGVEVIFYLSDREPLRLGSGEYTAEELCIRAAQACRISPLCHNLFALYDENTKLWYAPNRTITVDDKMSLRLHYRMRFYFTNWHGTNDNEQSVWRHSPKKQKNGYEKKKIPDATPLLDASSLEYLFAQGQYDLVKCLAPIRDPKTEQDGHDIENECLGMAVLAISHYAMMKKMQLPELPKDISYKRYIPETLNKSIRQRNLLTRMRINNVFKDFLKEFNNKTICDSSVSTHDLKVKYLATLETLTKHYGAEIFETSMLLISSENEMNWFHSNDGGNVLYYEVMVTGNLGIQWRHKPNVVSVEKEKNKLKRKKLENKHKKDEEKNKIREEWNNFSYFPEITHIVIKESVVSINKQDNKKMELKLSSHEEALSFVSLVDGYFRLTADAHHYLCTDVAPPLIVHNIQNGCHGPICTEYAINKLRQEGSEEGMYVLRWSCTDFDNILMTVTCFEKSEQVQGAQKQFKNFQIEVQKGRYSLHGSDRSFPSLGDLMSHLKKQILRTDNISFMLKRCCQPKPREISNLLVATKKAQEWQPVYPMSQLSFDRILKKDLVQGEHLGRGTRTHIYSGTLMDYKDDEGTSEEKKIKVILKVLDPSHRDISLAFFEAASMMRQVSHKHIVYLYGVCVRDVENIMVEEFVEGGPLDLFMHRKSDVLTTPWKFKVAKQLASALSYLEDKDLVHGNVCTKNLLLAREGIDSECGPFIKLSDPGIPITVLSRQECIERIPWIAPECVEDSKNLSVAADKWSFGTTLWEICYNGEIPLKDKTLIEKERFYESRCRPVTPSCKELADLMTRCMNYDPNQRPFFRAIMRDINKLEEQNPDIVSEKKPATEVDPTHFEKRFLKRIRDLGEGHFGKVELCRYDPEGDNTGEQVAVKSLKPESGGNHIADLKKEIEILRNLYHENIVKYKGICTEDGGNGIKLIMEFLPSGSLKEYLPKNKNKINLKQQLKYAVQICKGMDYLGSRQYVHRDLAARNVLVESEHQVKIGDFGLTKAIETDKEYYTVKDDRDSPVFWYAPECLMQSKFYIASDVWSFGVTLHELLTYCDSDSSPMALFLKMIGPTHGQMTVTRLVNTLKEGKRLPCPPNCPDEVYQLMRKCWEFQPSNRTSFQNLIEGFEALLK
(§2) The final buffer conditions for Tyk2, JAK1, JAK2, and JAK3 assays were as follows: 25 mM HEPES, pH 7.4, 10 mM MgCl2, 0.01% Triton X-100 and 1 mM DTT.
(§3) Two-μL aliquots of these were transferred to a fresh plate for a ten-fold intermediate dilution with assay buffer. Five-μL aliquots of the diluted compounds were then transferred to 20-μL of assay mixtures described in Examples A, B, C and D for a final concentration of DMSO of 2%. […] For each plate, percent of control (POC) values were calculated for each well according to the following equation: […]
(§4) IC50's were estimated from the POC's using a standard 4-parameter logistic model:
(§5) The IC50 is defined as the concentration of inhibitor at which the POC equals 50 for the fitted curve.
Compounds of Formula I were screened for their ability to inhibit JAK1 using the general enzyme inhibition assay method, in which the assay mixture contained 1 mM ATP, 8 μM Omnia® Y12 peptide (Catalog # IVGN KPZ3121C; Invitrogen Corporation, Carlsbad, Calif.) and 12.5 nM JAK1 in a total volume of 25 μL. JAK1 was purchased from Invitrogen Corporation, Carlsbad, Calif. (catalog # IVGN PV4775).

In assay [2] the target is Human Tyk2 kinase domain (Homo sapiens (Human), UniProt P29597). Briefly: Tyk2 Inhibition Assay (Example A, Omnia kinase fluorescence peptide substrate assay). Particulars: TYK2 Enzyme IC50 1 mM ATP, averaged IC50 ranges.
Chain of Human Tyk2 kinase domain (P29597 886-1187): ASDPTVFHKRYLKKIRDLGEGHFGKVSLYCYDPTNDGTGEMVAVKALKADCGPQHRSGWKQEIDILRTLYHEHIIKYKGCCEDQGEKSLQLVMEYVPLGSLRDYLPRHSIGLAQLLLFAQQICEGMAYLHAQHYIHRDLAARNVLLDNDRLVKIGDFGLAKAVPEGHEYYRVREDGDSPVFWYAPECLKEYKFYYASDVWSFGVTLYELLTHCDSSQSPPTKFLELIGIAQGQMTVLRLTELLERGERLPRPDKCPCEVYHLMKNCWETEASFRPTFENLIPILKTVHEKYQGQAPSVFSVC
Text: as §1, §2, §3, §4, §5
Compounds of Formula I were screened for their ability to inhibit Tyk2 using the general enzyme inhibition assay method, in which the assay mixture contained 1 mM ATP, 8 μM Omnia Y12 peptide (Catalog # IVGN KPZ3121C; Invitrogen Corporation, Carlsbad, Calif.) and 1 nM Tyk2 in a total volume of 25 μL. Human Tyk2 kinase domain, comprising amino acids 886 to 1187 with 10 additional histidine residues (histidine tag) on the carboxy terminus, was expressed and purified from bacculovirus in-house at Array BioPharma Inc. (Boulder, Colo.). The histidine tag was cleaved after purification using standard conditions.

In assay [3] the target is JAK3 (Homo sapiens (Human), UniProt P52333). Briefly: JAK3 Inhibition Assay (Example D, Omnia kinase fluorescence peptide substrate assay).
Chain of JAK3 (P52333 whole entry): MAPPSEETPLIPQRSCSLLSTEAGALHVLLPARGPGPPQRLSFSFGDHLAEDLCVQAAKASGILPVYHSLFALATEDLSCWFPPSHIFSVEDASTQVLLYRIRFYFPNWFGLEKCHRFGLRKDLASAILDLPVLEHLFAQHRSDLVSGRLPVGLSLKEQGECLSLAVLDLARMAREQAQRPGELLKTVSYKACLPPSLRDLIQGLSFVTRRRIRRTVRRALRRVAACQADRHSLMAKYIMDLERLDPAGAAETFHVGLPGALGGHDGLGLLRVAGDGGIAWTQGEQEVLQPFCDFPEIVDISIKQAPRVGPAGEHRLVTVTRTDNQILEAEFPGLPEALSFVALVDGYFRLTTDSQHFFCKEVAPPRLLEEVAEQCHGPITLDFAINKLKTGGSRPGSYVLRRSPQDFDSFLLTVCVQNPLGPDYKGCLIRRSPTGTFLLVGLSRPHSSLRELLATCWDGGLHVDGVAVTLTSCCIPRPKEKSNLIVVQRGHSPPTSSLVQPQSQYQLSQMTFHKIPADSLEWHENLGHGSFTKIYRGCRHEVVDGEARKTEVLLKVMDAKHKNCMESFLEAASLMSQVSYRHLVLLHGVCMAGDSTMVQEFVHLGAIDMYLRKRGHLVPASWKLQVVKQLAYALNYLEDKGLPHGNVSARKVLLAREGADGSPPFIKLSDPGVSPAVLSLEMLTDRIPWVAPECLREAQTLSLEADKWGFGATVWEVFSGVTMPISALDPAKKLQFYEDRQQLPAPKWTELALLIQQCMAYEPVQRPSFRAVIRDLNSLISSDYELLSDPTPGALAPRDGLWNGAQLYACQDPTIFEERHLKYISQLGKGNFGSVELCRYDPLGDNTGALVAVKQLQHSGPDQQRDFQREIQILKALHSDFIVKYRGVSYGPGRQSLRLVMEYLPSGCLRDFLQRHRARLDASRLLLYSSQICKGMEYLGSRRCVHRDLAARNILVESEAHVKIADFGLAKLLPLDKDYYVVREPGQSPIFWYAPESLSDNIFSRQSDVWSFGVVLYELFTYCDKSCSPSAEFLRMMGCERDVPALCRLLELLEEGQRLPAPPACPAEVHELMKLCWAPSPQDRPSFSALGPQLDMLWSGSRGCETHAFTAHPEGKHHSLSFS
Text: as §1, §2, §3, §4, §5
Compounds of Formula I were screened for their ability to inhibit JAK3 using the general enzyme inhibition assay method, in which the assay mixture contained 1 mM ATP, 10 μM Omnia® Y7 peptide (Catalog # IVGN KNZ3071C, Invitrogen Corporation, Carlsbad, Calif.) and 2 nM JAK3 in a total volume of 25 μL. JAK3 was purchased from Invitrogen Corporation, Carlsbad, Calif. (catalog # IVGN PV4080).

The target in assay [4] is JAK2 (Homo sapiens (Human), UniProt O60674). Briefly: JAK2 Inhibition Assay (Example C, Omnia kinase fluorescence peptide substrate assay). Conditions: JAK2 Enzyme IC50 1 mM ATP, averaged IC50 ranges.
Chain of JAK2 (O60674 whole entry): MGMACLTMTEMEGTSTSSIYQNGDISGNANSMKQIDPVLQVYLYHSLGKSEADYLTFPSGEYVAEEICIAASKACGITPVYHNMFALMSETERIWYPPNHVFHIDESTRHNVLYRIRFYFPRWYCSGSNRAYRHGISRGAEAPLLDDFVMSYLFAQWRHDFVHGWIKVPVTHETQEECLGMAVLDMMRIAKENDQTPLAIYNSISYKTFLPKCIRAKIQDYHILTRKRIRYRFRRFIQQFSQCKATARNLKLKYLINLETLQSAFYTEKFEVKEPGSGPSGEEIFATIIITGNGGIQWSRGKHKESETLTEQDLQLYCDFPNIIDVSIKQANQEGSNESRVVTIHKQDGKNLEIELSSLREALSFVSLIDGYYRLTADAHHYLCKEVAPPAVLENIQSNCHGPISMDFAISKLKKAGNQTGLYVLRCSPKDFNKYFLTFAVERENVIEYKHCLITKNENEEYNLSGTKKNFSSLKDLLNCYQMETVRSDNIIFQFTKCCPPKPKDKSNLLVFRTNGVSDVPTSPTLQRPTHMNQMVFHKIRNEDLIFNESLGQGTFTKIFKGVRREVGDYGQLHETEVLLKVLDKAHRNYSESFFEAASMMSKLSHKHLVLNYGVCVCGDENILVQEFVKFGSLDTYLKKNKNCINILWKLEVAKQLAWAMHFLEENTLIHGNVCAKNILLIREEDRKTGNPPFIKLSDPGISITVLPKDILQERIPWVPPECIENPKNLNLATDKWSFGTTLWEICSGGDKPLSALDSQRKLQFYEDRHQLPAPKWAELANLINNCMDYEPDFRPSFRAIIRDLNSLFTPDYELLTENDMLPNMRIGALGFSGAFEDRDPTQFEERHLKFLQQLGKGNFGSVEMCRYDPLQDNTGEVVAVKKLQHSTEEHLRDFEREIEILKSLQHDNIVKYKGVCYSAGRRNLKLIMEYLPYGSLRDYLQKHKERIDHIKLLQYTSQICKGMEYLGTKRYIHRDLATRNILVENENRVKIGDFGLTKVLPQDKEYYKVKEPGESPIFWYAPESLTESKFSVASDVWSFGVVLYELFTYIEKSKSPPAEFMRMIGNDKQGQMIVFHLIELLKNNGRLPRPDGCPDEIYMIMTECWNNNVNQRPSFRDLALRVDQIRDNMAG
Text: as §1, §2, §3, §4, §5
Compounds of Formula I were screened for their ability to inhibit JAK2 using the general enzyme inhibition assay method, in which the assay mixture contained 1 mM ATP, 10 μM Omnia® Y7 peptide (Catalog # IVGN KNZ3071C, Invitrogen Corporation, Carlsbad, Calif.) and 4 nM JAK2 in a total volume of 25 μL. JAK2 was purchased from Invitrogen Corporation, Carlsbad, Calif. (catalog # IVGN PV4288).

[5] abbreviates: JAK1 Enzyme IC50 1 mM ATP, 1 mM ATP, averaged IC50 ranges.

For `CCC(CC)n1cc(-c2nc(-c3cnn([C@H]4CCC[C@@H]4O)c3)cn3nccc23)cn1` (single isomer, unassigned) [Example 154], the IC50 in assay [1] (setting [5]) lay in the range of 100 to 1000 nM; in assay [2], 10 to 100 nM; in assay [3] it was 1000 to 10000 nM; in assay [4], 10 to 100 nM.
Consider `CCC(CC)n1cc(-c2nc(-c3cnn([C@@H](C)[C@H](C)O)c3)cn3nccc23)cn1` (single isomer, unassigned) [Example 155], for which the IC50 lay in the range of 100 to 1000 nM in assay [1] (setting [5]), 10 to 100 nM in assay [2], 1000 to 10000 nM in assay [3] and 10 to 100 nM in assay [4].
For `CCC(CC)n1cc(-c2nc(-c3cnn([C@H](C)[C@@H](C)O)c3)cn3nccc23)cn1` (single isomer, unassigned) [Example 156], the IC50 was 100 to 1000 nM in assay [1] (setting [5]), 10 to 100 nM in assay [2], 1000 to 10000 nM in assay [3] and 10 to 100 nM in assay [4].
As for `CCC(CC)n1cc(-c2nc(-c3cnn([C@@H](C)[C@@H](C)O)c3)cn3nccc23)cn1` (single isomer, unassigned) [Example 157], the IC50 in assay [1] (setting [5]) lay within 100 to 1000 nM; in assay [2] it was 10 to 100 nM; in assay [3], 1000 to 10000 nM; in assay [4] it was 10 to 100 nM.
With `CCC(CC)n1cc(-c2nc(-c3cnn([C@H](C)[C@H](C)O)c3)cn3nccc23)cn1` (single isomer, unassigned) [Example 158], the IC50 in assay [1] (setting [5]) fell in the range of 10 to 100 nM; in assay [2], 10 to 100 nM; in assay [3], 1000 to 10000 nM; in assay [4], 10 to 100 nM.
For `CC[C@H](C1CCC1)n1cc(-c2nc(-c3cnn(C[C@@H](O)CO)c3)cn3nccc23)cn1` (single isomer, unassigned) [Example 196], the IC50 lay within 1000 to 10000 nM in assay [1] (setting [5]), 100 to 1000 nM in assay [2], 1000 to 10000 nM in assay [3] and 100 to 1000 nM in assay [4].
Turning to `CC[C@@H](C1CCC1)n1cc(-c2nc(-c3cnn(C[C@@H](O)CO)c3)cn3nccc23)cn1` (single isomer, unassigned) [Example 197], the half-maximal inhibitory concentration (IC50) in assay [1] (setting [5]) was 100 to 1000 nM; in assay [2], 10 to 100 nM; in assay [3], 1000 to 10000 nM; in assay [4], 10 to 100 nM.
For `CC[C@@H](n1cc(-c2nc(-c3cnn(C[C@@H](O)CO)c3)cn3nccc23)cn1)C(C)(F)F` (single isomer, unassigned) [Example 199], the IC50 in assay [1] (setting [5]) lay in the range of 1000 to 10000 nM; in assay [2], 100 to 1000 nM; in assay [3], 1000 to 10000 nM; in assay [4] it was 100 to 1000 nM.
In the case of `CCC(CC)n1cc(-c2nc(-c3cnn(C[C@@H](O)CCO)c3)cn3nccc23)cn1` (single isomer, unassigned) [Example 200], the IC50 in assay [1] is 100 to 1000 nM; in assay [2] it was 10 to 100 nM; in assay [3], 1000 to 10000 nM; in assay [4] it was 10 to 100 nM.
As to `CCC(CC)n1cc(-c2nc(-c3cnn(C[C@@](C)(O)CO)c3)cn3nccc23)cn1` (single isomer, unassigned) [Example 202], the IC50 in assay [1] was 100 to 1000 nM; in assay [2] it was 10 to 100 nM; in assay [3], 1000 to 10000 nM; in assay [4] it was 10 to 100 nM.
As for `CCC(CC)n1cc(-c2nc(-c3cnn(C[C@](C)(O)CO)c3)cn3nccc23)cn1` (single isomer, unassigned) [Example 203], the IC50 is 100 to 1000 nM in assay [1], 10 to 100 nM in assay [2], 1000 to 10000 nM in assay [3] and 10 to 100 nM in assay [4].
Turning to `CC[C@@H]1CCC[C@@H]1n1cc(-c2nc(-c3cnn(C[C@@H](O)CO)c3)cn3nccc23)cn1` (single isomer, unassigned) [Example 207], the IC50 in assay [1] (setting [5]) was 100 to 1000 nM; in assay [2], 10 to 100 nM; in assay [3] it was 100 to 1000 nM; in assay [4] it was less than 10 nM.
For `CC[C@H]1CCC[C@H]1n1cc(-c2nc(-c3cnn(C[C@@H](O)CO)c3)cn3nccc23)cn1` (single isomer, unassigned) [Example 208], the IC50 in assay [1] (setting [5]) fell in the range of 1000 to 10000 nM; in assay [2], 100 to 1000 nM; in assay [3], 1000 to 10000 nM; in assay [4] it was 10 to 100 nM.
In the case of `CCC(CC(F)(F)F)n1cc(-c2nc(-c3cnn(C(CO)CO)c3)cn3nccc23)cn1` (single isomer, unassigned) [Example 212], the IC50 was in the range of 1000 to 10000 nM in assay [1], 100 to 1000 nM in assay [2], 1000 to 10000 nM in assay [3] and 100 to 1000 nM in assay [4].
As for `CCC(CC)n1cc(-c2nc(-c3cnn([C@H]4CCC[C@H]4O)c3)cn3nccc23)cn1` (single isomer, unassigned) [compound 190], the IC50 is 1000 to 10000 nM in assay [1] (setting [5]), 100 to 1000 nM in assay [2], 1000 to 10000 nM in assay [3] and 100 to 1000 nM in assay [4].
`CCC(CC)n1cc(-c2nc(-c3cnn(C[C@H](O)CCO)c3)cn3nccc23)cn1` (single isomer, unassigned) [compound 201]: the IC50 fell in the range of 1000 to 10000 nM in assay [1], 10 to 100 nM in assay [2], 1000 to 10000 nM in assay [3] and 10 to 100 nM in assay [4].
Consider `CCOC(C)n1cc(-c2nc(-c3cnn(C)c3)cn3nccc23)cn1` (stereo not shown) [Example 1, 4-(1-(1-ethoxyethyl)-1H-pyrazol-4-yl)-6-(1-methyl-1H-pyrazol-4-yl)pyrazolo[1,5-a]pyrazine], for which the IC50 in assay [1], in assay [2], in assay [3] and in assay [4] was 1000 to 10000 nM in each case.
Turning to `Cn1cc(-c2cn3nccc3c(-c3cnn(C4CCCCCC4)c3)n2)cn1` [Example 2, 4-(1-cycloheptyl-1H-pyrazol-4-yl)-6-(1-methyl-1H-pyrazol-4-yl)pyrazolo[1,5-a]pyrazine], the IC50 in assay [1] is 1000 to 10000 nM; in assay [2], 100 to 1000 nM; in assay [3], 1000 to 10000 nM; in assay [4], 100 to 1000 nM.
For the molecule `CCC(CC)n1cc(-c2nc(-c3cnn(CCN4CCOCC4)c3)cn3nccc23)cn1` [Example 3, 4-(2-(4-(4-(1-(pentan-3-yl)-1H-pyrazol-4-yl)pyrazolo[1,5-a]pyrazin-6-yl)-1H-pyrazol-1-yl)ethyl)morpholine], the 50% inhibitory concentration (IC50) in assay [1] lay in the range of 1000 to 10000 nM; in assay [2], 10 to 100 nM; in assay [3] it was 1000 to 10000 nM; in assay [4], 10 to 100 nM.
As to `CCC(CC)n1cc(-c2nc(-c3cnn(CC4CCOCC4)c3)cn3nccc23)cn1` [Example 4, 4-(1-(pentan-3-yl)-1H-pyrazol-4-yl)-6-(1-((tetrahydro-2H-pyran-4-yl)methyl)-1H-pyrazol-4-yl)pyrazolo[1,5-a]pyrazine], the IC50 in assay [1] is 100 to 1000 nM; in assay [2] it was 10 to 100 nM; in assay [3], 1000 to 10000 nM; in assay [4], 10 to 100 nM.
Regarding `CCC(CC)n1cc(-c2nc(-c3cnn(CC(=O)N(C)C)c3)cn3nccc23)cn1` [Example 5, N,N-dimethyl-2-(4-(4-(1-(pentan-3-yl)-1H-pyrazol-4-yl)pyrazolo[1,5-a]pyrazin-6-yl)-1H-pyrazol-1-yl)acetamide], the IC50 in assay [1] was 100 to 1000 nM; in assay [2], 10 to 100 nM; in assay [3] it was 1000 to 10000 nM; in assay [4] it was 100 to 1000 nM.
As for `CCC(CC)n1cc(-c2nc(-c3cnn(CC(=O)N4CCOCC4)c3)cn3nccc23)cn1` [Example 6, 1-morpholino-2-(4-(4-(1-(pentan-3-yl)-1H-pyrazol-4-yl)pyrazolo[1,5-a]pyrazin-6-yl)-1H-pyrazol-1-yl)ethanone], the IC50 in assay [1] was 10 to 100 nM; in assay [2], 10 to 100 nM; in assay [3], 1000 to 10000 nM; in assay [4] it was 10 to 100 nM.
